Assay results from patent US12017996B2, “Substituted quinolines and formulations thereof” (JIANGSU MEDOLUTION LTD, priority 2021, dated 2024).

What was measured:
Assay type in all cases: physicochemical
[1] = Compatibility test of excipients (impurities over time)
Method: Each of mannitol, sodium starch glycolate, hydroxpropyl cellulose and glyceryl behenate was individually mixed with Compound A. The resulting mixture was tested for the impurities over time under the following conditions: lumination 4500±500 Lux; high humidity at 90±5%; high temperature at 40±2° C.; and accelerated condition at humidity of 75±5% and temperature of 40±2° C. Testing were done at day 0, day 7 and day 14. The percentage of the total impurities and the SZMD4-Z8 impurity were recorded together with other data.

Dissociation constants = assay: Dissociation constants
Excerpt: (§1) For example, Compound A is soluble in acetic acid and hydrochloric acid solution (0.1 M). […] Compound A's dissociation constants: pKa1 is 4.99; pKa2 is 10.26.

[2] = Solubility of Compound A in solvents
Excerpt: as §1

[3] = high temperature 40±2° C., day 7
[4] = high temperature 40±2° C., day 14
[5] = lumination 4500±500 Lux, day 14

- SZMD4-Z8 impurity ([1]; day 0): 0.03%
- Total Impurities ([1]; day 0): 0.29%
- SZMD4-Z8 impurity ([1]; high humidity 90±5%, day 7): 0.04%
- Total Impurities ([1]; high humidity 90±5%, day 7): 0.31%
- SZMD4-Z8 impurity ([1]; high humidity 90±5%, day 14): 0.04%
- Total Impurities ([1]; high humidity 90±5%, day 14): 0.30%
- SZMD4-Z8 impurity [1, 3]: 0.03%
- Total Impurities [1, 3]: 0.31%
- SZMD4-Z8 impurity [1, 4]: 0.03%
- Total Impurities [1, 4]: 0.30%
- SZMD4-Z8 impurity ([1]; lumination 4500±500 Lux, day 7): 0.03%
- Total Impurities ([1]; lumination 4500±500 Lux, day 7): 0.40%
- SZMD4-Z8 impurity [1, 5]: 0.03%
- Total Impurities [1, 5]: 0.44%%
- dissociation constant pKa1 (Dissociation constants): 4.99
- dissociation constant pKa2 (Dissociation constants): 10.26
- solubility ([2]; in acetic acid): soluble
- solubility ([2]; in acetonitrile): slightly soluble
- solubility ([2]; in ethanol): slightly soluble
- solubility ([2]; in hydrochloric acid solution (0.1 M)): soluble
- solubility ([2]; in n-propanol): hardly soluble
- solubility ([2]; in sodium hydroxide solution (0.1 M)): not soluble
- solubility ([2]; in water): extremely slightly soluble
Structure (SMILES): C#Cc1cccc(Nc2c(C#N)cnc3cc(OCC)c(NC(=O)/C=C/CN(C)C)cc23)c1.O=C(O)/C=C\C(=O)O [Compound A, (E)-N-[3-cyano-7-ethoxy-4-(3-ethynylanilino)-6-quinolyl]-4-(dimethylamino)but-2-enamide maleate]
